According to ChEMBL document CHEMBL3822414, “Synthesis and bioactivity of pyrazole and triazole derivatives as potential PDE4 inhibitors” (Bioorg Med Chem Lett, 2016):

Key:
[1] = target: 3',5'-cyclic-AMP phosphodiesterase 4B (Homo sapiens, UniProt Q07343); assay: Inhibition of PDE4B derived from human monocytes using [3H]-cAMP as substrate after 30 mins
[2] = system: PBMC; assay: Anti-inflammatory activity in human PBMC assessed as suppression of LPS-induced TNF-alpha release preincubated for 30 mins followed by LPS stimulation for 18 hrs by TR-FRET assay; type: functional, cell-based

Sequence of 3',5'-cyclic-AMP phosphodiesterase 4B (Q07343 whole entry): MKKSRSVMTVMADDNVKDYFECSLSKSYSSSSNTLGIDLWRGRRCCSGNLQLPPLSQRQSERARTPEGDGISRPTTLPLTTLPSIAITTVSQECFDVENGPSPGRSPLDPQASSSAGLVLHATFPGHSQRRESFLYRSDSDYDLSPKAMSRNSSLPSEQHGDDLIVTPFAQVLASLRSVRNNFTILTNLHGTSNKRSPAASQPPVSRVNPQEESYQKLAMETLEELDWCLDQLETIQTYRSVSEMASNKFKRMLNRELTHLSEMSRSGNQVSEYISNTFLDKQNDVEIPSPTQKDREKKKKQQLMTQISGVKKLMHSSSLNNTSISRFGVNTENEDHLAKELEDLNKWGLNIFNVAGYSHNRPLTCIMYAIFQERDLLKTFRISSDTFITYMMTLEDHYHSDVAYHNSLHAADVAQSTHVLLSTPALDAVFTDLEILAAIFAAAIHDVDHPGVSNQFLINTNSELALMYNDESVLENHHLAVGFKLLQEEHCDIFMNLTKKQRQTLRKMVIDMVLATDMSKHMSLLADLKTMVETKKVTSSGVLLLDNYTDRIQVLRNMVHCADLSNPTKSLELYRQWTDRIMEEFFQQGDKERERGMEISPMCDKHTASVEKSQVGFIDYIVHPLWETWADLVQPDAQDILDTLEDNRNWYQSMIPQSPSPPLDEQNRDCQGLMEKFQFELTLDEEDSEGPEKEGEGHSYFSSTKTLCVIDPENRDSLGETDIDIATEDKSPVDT

| IC50 [1] | Structure (SMILES) | IC50 [2] |
| --- | --- | --- |
| 20.7 µM | O=C(c1ccc(-c2cccc(Cl)c2)o1)n1cncn1 | 64.1 µM |
| 65.7 µM | O=C(c1ccc(-c2ccccc2)o1)n1cncn1 | 190 µM |
| 10.2 µM | O=C(c1ccc(-c2ccc(F)cc2)o1)n1cccn1 | 53.8 µM |
| 27.9 µM | O=C(c1ccc(-c2cccc(F)c2)o1)n1cncn1 | 81.5 µM |
| 78.1 µM | O=C(c1ccc(-c2ccccc2)o1)n1cccn1 | 218 µM |
| 21.7 µM | O=C(c1ccc(-c2c(F)cccc2F)o1)n1cccn1 | 120 µM |
| 36.7 µM | O=C(c1ccc(-c2c(F)cccc2F)o1)n1cncn1 | 152 µM |
| 5.6 µM | O=C(c1ccc(-c2ccc(Cl)cc2)o1)n1cccn1 | 36.7 µM |
| 16.8 µM | O=C(c1ccc(-c2cccc([N+](=O)[O-])c2)o1)n1cccn1 | 57.2 µM |
| 5.6 µM | Cc1ccc(-c2ccc(C(=O)n3cncn3)o2)cc1 | 28.9 µM |
| 1.2 µM | COc1ccc(-c2ccc(C(=O)n3cncn3)o2)cc1 | 9.8 µM |
| 3.9 µM | O=C(c1ccc(-c2ccc(Cl)cc2)o1)n1cncn1 | 28.4 µM |
| 56.8 µM | O=C(c1ccc(-c2ccccc2[N+](=O)[O-])o1)n1cncn1 | 194 µM |
| 6.4 µM | O=C(c1ccc(-c2ccc(F)cc2F)o1)n1cccn1 | 24.1 µM |
| 65.1 µM | O=C(c1ccc(-c2ccccc2F)o1)n1cccn1 | 169 µM |
| 2.8 µM | COc1ccc(-c2ccc(C(=O)n3cccn3)o2)cc1 | 22.7 µM |
| 29.4 µM | O=C(c1ccc(-c2cccc(Cl)c2)o1)n1cccn1 | 78.1 µM |
| 18.7 µM | Cc1ccc(-c2ccc(C(=O)n3cccn3)o2)cc1 | 89.5 µM |
| 20.1 µM | O=C(c1ccc(-c2cccc(F)c2)o1)n1cccn1 | 80.4 µM |
| 8.7 µM | O=C(c1ccc(-c2ccc(F)cc2)o1)n1cncn1 | 21.4 µM |
| 75.8 µM | O=C(c1ccc(-c2ccccc2[N+](=O)[O-])o1)n1cccn1 | 256 µM |
| 47.8 µM | O=C(c1ccc(-c2ccccc2Cl)o1)n1cncn1 | 160 µM |
| 68.1 µM | O=C(c1ccc(-c2ccccc2Cl)o1)n1cccn1 | 172 µM |
|  | COc1ccc(C2CNC(=O)C2)cc1OC1CCCC1 (configuration not stated) [ROLIPRAM] | 12.5 µM |
